# Reference: patent US10800784B2, “Nitrogen-containing heterocyclic amide compound and pharmaceutical use thereof” (Japan Tobacco Inc., priority 2018, dated 2020)
# Columns and labels:
# human PDHK1 (hPDHK1) = human PDHK1 (hPDHK1) (Homo sapiens (Human), UniProt Q15118); experiment: Inhibitory action of PDHK1 activity in vitro (residual PDH activity after PDHK reaction); assay type: biochemical; details: for IC50: PDH/hPDHK1 complex solution, PDHK reaction at room temperature for 45 min, NADH absorbance at 340 nm, read-out: hPDK1 IC50; for inhibition at 0.003 µM: at 3 nmol/L, shown when IC50 value could not be calculated, read-out: hPDHK1 inhibitory rate at the lowest concentration of the test compound
# Protocol: (§1) The inhibitory action of PDHK activity was assessed indirectly by measuring the residual PDH activity after PDHK reaction in the presence of a test compound.
# (Inhibitory Action of PDHK1 Activity)
# In the case of human PDHK1 (hPDHK1, NCBI Reference Database Accession number NM_002610.3), a 1.3 kbp fragment encoding this protein was isolated from human liver cDNA by polymerase chain reaction (PCR). Modified hPDHK1 cDNA wherein FLAG-Tag sequence was added to the N terminus was prepared by PCR and ligated to the NdeI/EcoRI site of pET-17b vector (Merck MGaA, model number 69663-3). The recombinant construct was transformed into Escherichia coli DH5a (TOYOBO, model number DNA-903). The recombinant clones were identified, and plasmid DNA was isolated and subjected to the DNA sequence analysis. One clone which had the expected nucleic acid sequence was selected for expression work.
# For expression of hPDHK1 activity, Escherichia coli strain BL21(DE3) cells (Merck KGaA, model number 69450-4) were transformed with the pET17b vector containing modified hPDHK1 cDNA. The Escherichia coli were grown to an optical density 0.6 ([…]) at 30° C. Protein expression was induced by the addition of 500 μmol/L isopropyl-β-thiogalactopyranoside. The Escherichia coli were cultured at 20° C. for 17-18 hr and harvested by centrifugation.
# The harvested Escherichia coli was resuspended in a suspension buffer (20 mmol/L N-(2-hydroxyethyl)piperazine-N′-2-ethanesulfonic acid-sodium hydroxide (HEPES-NaOH), 500 mmol/L sodium chloride, 1% ethylene glycol, and 0.1% polyoxyethylene-polyoxypropylene block copolymer (Pluronic F-68), complete, EDTA-free (pH 8.0)) and disrupted by a microfluidizer M-110H (MIZUHO INDUSTRIAL CO., LTD.) or ultrasonication. The precipitate was removed by centrifugation and the supernatant was added to DDDDK-tagged Protein PURIFICATION GEL (MBL, model number 3329). DDDDK-tagged Protein PURIFICATION GEL was washed with a washing buffer (20 mmol/L HEPES-NaOH, 500 mmol/L sodium chloride, 1% ethylene glycol, 0.1% pluronic F-68 (pH 8.0)) and the bound protein was eluted with elution buffer 1 (20 mmol/L HEPES-NaOH, 100 μg/mL peptide (amino acid sequence DYKDDDDK) (SEQ ID NO: 1), 500 mmol/L sodium chloride, 1% ethylene glycol, 0.1% pluronic F-68 (pH 8.0)).
# The eluted fractions containing FLAG-Tagged protein were pooled, concentrated by an ultrafiltration method, added to a gel filtration column (HiLoad 26/60 Superdex 200 (GE Healthcare, model number 17-1070-01)), and eluted with elution buffer 2 (20 mmol/L HEPES-NaOH, 150 mmol/L sodium chloride, 0.5 mmol/L ethylenediaminetetraacetic acid (EDTA), 1% ethylene glycol, 0.1% pluronic F-68 (pH 8.0)). The eluted fractions were pooled and preserved at −80° C.
# (§2) 0.025 U/mL PDH (porcine heart PDH complex, Sigma P7032) and 0.5 μg/mL hPDHK1 were mixed in an assay buffer (50 mmol/L 3-morpholinopropanesulfonic acid (pH 7.0), 20 mmol/L dipotassium hydrogen phosphate, 60 mmol/L potassium chloride, 2 mmol/L magnesium chloride, 0.4 mmol/L EDTA, 0.2% poloxamer, 2 mmol/L dithiothreitol), and the mixture was incubated at 4° C. overnight to obtain a PDH/hPDHK1 complex solution. In the assay buffer, 0.025 U/mL PDH was mixed and incubated at 4° C. overnight to prepare a PDH solution.
# The test compounds were diluted with dimethyl sulfoxide (DMSO). To measure an inhibitory action of the test compound on the PDHK activity in the PDH/hPDHK1 complex solution, PDH/hPDHK1 complex solution (20 μL), test compound (1.5 μL) and 0.353 μmol/L ATP (diluted with assay buffer) (8.5 μL) were added to a 384 well microplate (Greiner Bio-One 781801) and PDHK reaction was performed at room temperature for 45 min (test compound well). DMSO (1.5 μL) was added to control wells instead of test compound. In addition, DMSO (1.5 μL) was added to blank wells instead of the test compound, and PDH solution was added instead of the PDH/hPDHK1 complex solution. […]
# human PDHK2 (hPDHK2) = human PDHK2 (hPDHK2) (Homo sapiens (Human), UniProt Q15119); experiment: Inhibitory action of PDHK2 activity in vitro (residual PDH activity after PDHK reaction); assay type: biochemical; details: for IC50: PDH/hPDHK2 complex solution, PDHK reaction at room temperature for 45 min, NADH absorbance at 340 nm, read-out: kPDK2 IC50
# Protocol: as §1
# (Inhibitory Action of PDHK2 Activity)
# In the case of human PDHK2 (hPDHK2, NCBI Reference Database Accession number NM_002611.4), modified hPDHK2 cDNA wherein FLAG-Tag sequence was added to the N terminus of hPDHK2 cDNA clone (pReceiver-M01/PDK2-GeneCopoeia) as the base was prepared by PCR and ligated to the NdeI/EcoRI site of pET-17b vector. The recombinant construct was transformed into Escherichia coli DH5a. The recombinant clones were identified, and plasmid DNA was isolated and subjected to the DNA sequence analysis. One clone which had the expected nucleic acid sequence was selected for expression work.
# For expression of hPDHK2 activity, Escherichia coli strain BL21(DE3) cells were transformed with the pET17b vector containing modified hPDHK2 cDNA. The Escherichia coli were grown to an optical density 0.6 ([…]) at 30° C. Protein expression was induced by the addition of 500 μmol/L isopropyl-β-thiogalactopyranoside. The Escherichia coli were cultured at 20° C. for 17-18 hr and harvested by centrifugation. The harvested Escherichia coli was resuspended in a suspension buffer (20 mmol/L HEPES-NaOH, 500 mmol/L sodium chloride, 1% ethylene glycol, 0.1% pluronic F-68 (pH 8.0), cOmplete, EDTA-free (pH 8.0)), and disrupted by a microfluidizer. The precipitate was removed by centrifugation and the supernatant was added to DDDDK-tagged Protein PURIFICATION GEL. DDDDK-tagged Protein PURIFICATION GEL was washed with a washing buffer (20 mmol/L HEPES-NaOH, 500 mmol/L sodium chloride, 1% ethylene glycol, 0.1% pluronic F-68 (pH 8.0)) and the bound protein was eluted with elution buffer 1 (20 mmol/L HEPES-NaOH, 100 μg/mL peptide (amino acid sequence DYKDDDDK) (SEQ ID NO: 1), 500 mmol/L sodium chloride, 1% ethylene glycol, 0.1% pluronic F-68 (pH 8.0)). The eluted fractions containing FLAG-Tagged protein were pooled, concentrated by an ultrafiltration method, added to a gel filtration column (HiLoad 26/60 Superdex 200), and eluted with elution buffer 2 (20 mmol/L HEPES-NaOH, 150 mmol/L sodium chloride, 0.5 mmol/L ethylenediaminetetraacetic acid (EDTA), 1% ethylene glycol, 0.1% pluronic F-68 (pH 8.0)). The eluted fractions were pooled and preserved at −80° C.
# as §2, with “PDH” for “PDH (porcine heart PDH complex, Sigma P7032)”, “hPDHK2” for “hPDHK1”, “PDH/hPDHK2” for “PDH/hPDHK1”
# The test compounds were diluted with DMSO. To measure an inhibitory action of the test compound on the PDHK activity in the PDH/hPDHK2 complex solution, PDH/hPDHK2 complex solution (20 μL), test compound (1.5 μL) and 1.06 μmol/L ATP (diluted with assay buffer) (8.5 μL) were added to a 384 well microplate and PDHK reaction was performed at room temperature for 45 min (test compound well). DMSO (1.5 μL) was added to control wells instead of test compound. In addition, DMSO (1.5 μL) was added to blank wells instead of the test compound, and PDH solution was added instead of the PDH/hPDHK2 complex solution. To measure an inhibitory action of the test compound on the PDHK activity inherent in the PDH solution, a test compound was added and the PDH solution instead of the PDH/hPDHK2 complex solution was added to a blank+test compound well.
# Then, 10 μL of substrates (5 mmol/L sodium pyruvate, 5 mmol/L Coenzyme A, 12 mmol/L NAD, 5 mmol/L thiamine pyrophosphate, diluted with assay buffer) were added. The mixture was incubated at room temperature for 90 min, and the residual PDH activity was measured. […]
# Sequence of human PDHK1 (hPDHK1) (Q15118 29-436): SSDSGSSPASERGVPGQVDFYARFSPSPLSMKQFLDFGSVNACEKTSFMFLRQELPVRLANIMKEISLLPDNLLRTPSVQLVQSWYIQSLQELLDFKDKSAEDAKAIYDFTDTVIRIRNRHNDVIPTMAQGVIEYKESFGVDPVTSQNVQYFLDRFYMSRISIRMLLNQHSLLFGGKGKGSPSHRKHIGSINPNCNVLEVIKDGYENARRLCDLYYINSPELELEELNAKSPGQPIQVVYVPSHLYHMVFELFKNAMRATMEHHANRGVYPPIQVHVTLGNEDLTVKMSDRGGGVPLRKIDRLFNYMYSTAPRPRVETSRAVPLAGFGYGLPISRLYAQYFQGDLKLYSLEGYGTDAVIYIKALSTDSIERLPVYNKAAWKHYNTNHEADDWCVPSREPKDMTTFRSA
Compound,IC50 (human PDHK1 (hPDHK1)),inhibition at 0.003 µM (human PDHK1 (hPDHK1)),IC50 (human PDHK2 (hPDHK2)),"hPDHK2 inhibitory rate at the lowest concentration of the test compound (human PDHK2 (hPDHK2); lowest concentration of the test compound in the assay (<3 nmol/L), shown when IC50 value could not be calculated)"
C[C@H]1CN(C(=O)c2cccc(-c3ccc(F)cc3)n2)Cc2cnc([C@@](C)(O)C(F)(F)F)n21 [Example 38],< 3 nM,73%,4 nM,–
C[C@H]1CN(C(=O)c2ncccc2-c2ccc(F)cc2)Cc2cnc([C@@](C)(O)C(F)(F)F)n21 [Example 39],46 nM,–,18 nM,–
"C[C@H]1CN(C(=O)c2c(Cl)c(-c3ccc(C#N)cc3)nn2C)Cc2cnc([C@@](C)(O)C(F)(F)F)n21 [Example 40, 4-(4-chloro-1-methyl-5-((S)-5-methyl-3-((R)-1,1,1-trifluoro-2-hydroxypropan-2-yl)-5,6,7,8-tetrahydroimidazo[1,5-a]pyrazine-7-carbonyl)-1H-pyrazol-3-yl)benzonitrile]",5 nM,–,6 nM,–
C[C@H]1CN(C(=O)c2nn(C)c(-c3ccc(C#N)cc3)c2Cl)Cc2cnc([C@@](C)(O)C(F)(F)F)n21 [Example 41],6 nM,–,6 nM,–
C[C@H]1CN(C(=O)c2ccc(-c3ccc(F)cc3)cn2)Cc2cnc([C@@](C)(O)C(F)(F)F)n21 [Example 42],4 nM,–,5 nM,–
C[C@H]1CN(C(=O)c2cccc(-c3ccc(C#N)cc3)n2)Cc2cnc([C@@](C)(O)C(F)(F)F)n21 [Example 43],< 3 nM,52%,5 nM,–
C[C@H]1CN(C(=O)c2cc(-c3ccc(S(C)(=O)=O)cc3)nn2C)Cc2cnc([C@@](C)(O)C(F)(F)F)n21 [Example 44],5 nM,–,7 nM,–
C[C@H]1CN(C(=O)c2ccc(-c3ccc(C#N)cc3)cn2)Cc2cnc([C@@](C)(O)C(F)(F)F)n21 [Example 45],9 nM,–,8 nM,–
Cc1nc(-c2ccc(C#N)cc2)oc1C(=O)N1Cc2cnc([C@@](C)(O)C(F)(F)F)n2[C@@H](C)C1 [Example 46],5 nM,–,5 nM,–
C[C@H]1CN(C(=O)c2cc(-c3ccc(F)cc3F)nn2C)Cc2cnc([C@@](C)(O)C(F)(F)F)n21 [Example 47],< 3 nM,53%,4 nM,–
"C[C@H]1CN(C(=O)c2ccnc(-c3ccc(F)cc3)c2)Cc2cnc([C@@](C)(O)C(F)(F)F)n21 [Example 48, (2-(4-fluorophenyl)pyridin-4-yl)((S)-5-methyl-3-((R)-1,1,1-trifluoro-2-hydroxypropan-2-yl)-5,6-dihydroimidazo[1,5-a]pyrazin-7(8H)-yl)methanone]",< 3 nM,88%,< 3 nM,81%
C[C@H]1CN(C(=O)c2cccc(-c3ccccn3)c2)Cc2cnc([C@@](C)(O)C(F)(F)F)n21 [Example 49],3 nM,–,3 nM,–
C[C@H]1CN(C(=O)c2cc(-c3ccc(C#N)cc3F)nn2C)Cc2cnc([C@@](C)(O)C(F)(F)F)n21 [Example 50],4 nM,–,5 nM,–
C[C@H]1CN(C(=O)c2ccc(C3(O)CCC3)cc2)Cc2cnc([C@@](C)(O)C(F)(F)F)n21 [Example 51],4 nM,–,6 nM,–
C[C@H]1CN(C(=O)c2ccc(C3(O)CCCC3)cc2)Cc2cnc([C@@](C)(O)C(F)(F)F)n21 [Example 52],4 nM,–,6 nM,–
"C[C@H]1CN(C(=O)c2cc(-c3ccc(C#N)cc3)n(C3CC3)n2)Cc2cnc([C@@](C)(O)C(F)(F)F)n21 [Example 53, 4-(1-cyclopropyl-3-((S)-5-methyl-3-((R)-1,1,1-trifluoro-2-hydroxypropan-2-yl)-5,6,7,8-tetrahydroimidazo[1,5-a]pyrazine-7-carbonyl)-1H-pyrazol-5-yl)benzonitrile]",4 nM,–,8 nM,–
C[C@H]1CN(C(=O)c2ccnc(-c3ccc(F)cc3C#N)c2)Cc2cnc([C@@](C)(O)C(F)(F)F)n21 [Example 54],< 3 nM,53%,5 nM,–
C[C@H]1CN(C(=O)c2cc(-c3ccc(F)cc3)ccn2)Cc2cnc([C@@](C)(O)C(F)(F)F)n21 [Example 55],< 3 nM,54%,4 nM,–
